Measurements taken from publication PMC3532212 (PLoS ONE, 2012).
pEC50: −log10 of the molar value.

Legend:
Human S1P1 = target: T1, Human S1P1 (Homo sapiens, UniProt P21453); assay: B arrestin recruitment assay, Tango EDG1-bla U2OS cells; format: cell-based; details: 18 hours agonist incubation
T1 construct: host or cells: U2OS (Tango EDG1-bla)
Method: (§1) Tango™ EDG1-bla U2OS cells (Human S1P1), Tango™ EDG3-bla U2OS cells (human S1P3), Tango™ EDG6-bla U2OS cells (human S1P4) and Tango™ EDG8-bla U2OS cells (human S1P5) cell lines were cultured and assayed according to manufacturers instructions with one modification; agonists incubated on the cells for 18 hours prior to addition of the GenBlazer substrate. Final DMSO concentration in the assay is 1%.

human S1P3 = target: T2, human S1P3 (Homo sapiens, UniProt Q99500); assay: B arrestin recruitment assay, Tango EDG3-bla U2OS cells; format: cell-based; details: 18 hours agonist incubation
T2 construct: host or cells: U2OS (Tango EDG3-bla)
T2 sequence (Q99500 whole entry): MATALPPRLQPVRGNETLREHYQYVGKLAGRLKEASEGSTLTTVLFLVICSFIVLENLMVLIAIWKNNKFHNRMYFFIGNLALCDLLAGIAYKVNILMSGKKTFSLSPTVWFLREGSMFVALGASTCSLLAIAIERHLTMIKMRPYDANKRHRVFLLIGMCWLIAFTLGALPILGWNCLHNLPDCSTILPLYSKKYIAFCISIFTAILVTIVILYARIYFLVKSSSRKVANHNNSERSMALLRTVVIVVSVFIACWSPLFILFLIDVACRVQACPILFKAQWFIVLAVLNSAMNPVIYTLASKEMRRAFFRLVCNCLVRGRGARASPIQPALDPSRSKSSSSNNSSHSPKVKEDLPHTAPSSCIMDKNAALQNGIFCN
Method: as §1

human S1P5 = target: T3, human S1P5 (Homo sapiens, UniProt Q9H228); assay: B arrestin recruitment assay, Tango EDG8-bla U2OS cells; format: cell-based; details: 18 hours agonist incubation
T3 construct: host or cells: U2OS (Tango EDG8-bla)
T3 sequence (Q9H228 whole entry): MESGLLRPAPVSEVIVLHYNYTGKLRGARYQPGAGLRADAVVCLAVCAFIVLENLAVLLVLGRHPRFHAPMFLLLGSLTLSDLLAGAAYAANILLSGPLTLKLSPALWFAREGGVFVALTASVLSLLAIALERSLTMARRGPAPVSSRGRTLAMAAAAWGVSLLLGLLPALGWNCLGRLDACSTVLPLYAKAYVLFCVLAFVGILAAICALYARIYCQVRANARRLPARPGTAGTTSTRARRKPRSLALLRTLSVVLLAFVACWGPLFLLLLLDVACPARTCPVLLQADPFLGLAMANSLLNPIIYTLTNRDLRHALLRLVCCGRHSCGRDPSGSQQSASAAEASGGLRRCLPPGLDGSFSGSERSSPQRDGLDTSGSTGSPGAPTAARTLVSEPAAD
Method: as §1

anesthetized rats = assay: Left ventricular contractility (LV dP/dtmax) in anesthetized rats; format: in vivo; details: anesthetized rat
Method: The cardiovascular effects of FTY720 and BAF312 were tested in anesthetized rats (180–200 g). In brief, male Sprague Dawley rats (Charles River) were anesthetized with Inactin (110 mg/kg i.p.) and a tracheotomy performed. The femoral artery and veins were catheterized for measurement of mean arterial pressure and heart rate, collection of blood samples at 20-min intervals (0.2 mL/sample), and for compound infusion/hydration as previously described, [24]; blood samples were also withdrawn in vehicle-treated control rats. FTY720, infused as a hydrochloride salt (0.1, 0.3, 1.0 mg/kg/20-min free base equivalent solubilized in a 100% PEG-400 vehicle), or BAF312 (0.5, 1.5, 5.0 mg/kg/20-min solubilized in a 100% PEG-400 vehicle) were administered via three escalating 20-min infusions (0.011 mL/min) followed by a 1-hr post-treatment period. […] In a separate group of anesthetized rats in which left ventricular (LV) contractility was also recorded with a Millar pressure transducer introduced into the left ventricle, BAF312 was infused in the same dosing regimen as the studies described above (0.5, 1.5, 5.0 mg/kg/20-min solubilized in a 100% PEG-400 vehicle) and effects on LV dP/dtmax were recorded.

[1] = CSF concentrations after a single oral dose of FTY720, satellite rats; format: in vivo, rat; details: FTY720 3.0 or 10 mg/kg single oral dose, 4, 8, 24, 72-hrs post-dose
Method: Prior to longer-term hypertension studies with FTY720 an acute, single oral-dose study was performed to define the lower and upper limits of a pharmacologically-active dose with respect to acute hemodynamic effects. […] Values of both the parent and metabolite were detectable through at least 72-hrs post-dose. Tissue concentrations in the brain, skeletal muscle, and CSF were also determined in a separate group of satellite rats (please see Supplementary Figure, S2 ). Relative to the vehicle control group, FTY720 elicited dose-dependent and sustained increases in mean arterial pressure after a single oral dose, an effect that reached statistical significance in the 3 and 10 mg/kg dose groups (to 13.5±1.8 and 19.9±2.8 mmHg above baseline, respectively, based on a 24-hr mean values on day 1 vs. 3.6±1.5 mmHg in vehicle controls, Figure 4 , A). […] The acute hemodynamic effects of a single oral dose of BAF312 (0.3, 3.0, and 30 mg/kg) were also quantified.
A blood sample or tissues were harvested from satellite rats at 4, 8, 24, and 72-hrs post-dose. […] (TIF) Click here for additional data file.

[2] = Heart tissue concentrations at the end of the repeat-dosing study; format: in vivo; details: rat
Method: In the repeat-dosing study with FTY720 (0.5, 1.5, and 5.0 mg/kg/d), plasma concentrations were also determined ( Table 3 ).

rats [3] = assay: Urinary sodium excretion in rats; format: in vivo, rat; details: subset of telemetry rats administered FTY720; unpublished preliminary observation
rats [4] = system: rats; parameters: method as in PMID 12352874; details: FTY720 5 mg/kg/d; cited from earlier work
patients = system: patients; parameters: method as in PMID 20089954; details: 1-yr trial; cited from earlier work

T1 sequence (P21453 whole entry): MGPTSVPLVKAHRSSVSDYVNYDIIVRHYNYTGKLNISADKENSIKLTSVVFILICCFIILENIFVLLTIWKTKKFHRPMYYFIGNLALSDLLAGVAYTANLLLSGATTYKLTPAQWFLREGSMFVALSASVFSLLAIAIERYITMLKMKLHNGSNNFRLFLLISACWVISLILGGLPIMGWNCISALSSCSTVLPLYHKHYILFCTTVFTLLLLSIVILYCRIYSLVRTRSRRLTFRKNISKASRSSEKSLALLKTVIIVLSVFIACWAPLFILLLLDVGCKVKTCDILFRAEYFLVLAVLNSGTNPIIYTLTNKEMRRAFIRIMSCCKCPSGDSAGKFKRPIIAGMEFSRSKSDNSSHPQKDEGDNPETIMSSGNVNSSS

CCc1cc(/C(C)=N/OCc2ccc(C3CCCCC3)c(C(F)(F)F)c2)ccc1CN1CC(C(=O)O)C1 [BAF312]
pEC50 (Human S1P1): 8.60 | pEC50 (human S1P3): < 5.00 | pEC50 (human S1P5): 9.10 | decrease in dP/dt (anesthetized rats; BAF312, 5.0 mg/kg dose group): not maintained | LV dP/dtmax, below values in vehicle control animals (anesthetized rats; BAF312, end of the 1.5 mg/kg i.v. infusion): −5±4%

CCCCCCCCc1ccc(CC[C@](N)(CO)COP(=O)(O)O)cc1 [FTY720-P]
concentration in the CSF [1]: No compound was detectable | mean tissue concentration in heart ([2]; FTY720 0.5 mg/kg/d p.o.): 513 ng/g | mean tissue concentration in heart ([2]; FTY720 1.5 mg/kg/d p.o.): 757 ng/g | mean tissue concentration in heart ([2]; FTY720 5.0 mg/kg/d p.o.): 3799 ng/g

CCCCCCCCc1ccc(CCC(N)(CO)CO)cc1 [FTY720]
concentration in the CSF [1]: No compound was detectable | mean tissue concentration in heart ([2]; FTY720 0.5 mg/kg/d p.o.): 379 ng/g | mean tissue concentration in heart ([2]; FTY720 1.5 mg/kg/d p.o.): 490 ng/g | mean tissue concentration in heart ([2]; FTY720 5.0 mg/kg/d p.o.): 1848 ng/g | urinary sodium excretion (rats [3]): reduction in urinary sodium excretion | 24-hr sodium excretion values and fractional excretion of sodium (rats [4]): elicited reductions | hypertension in patients (patients): 2–3 mmHg
